Data published in US9388195B2, “Heterocyclic compound” (Takeda Pharmaceutical Company Limited, priority 2010, dated 2016).
Counter-ions that a name gives are not always drawn. Like-named read-outs stand apart in the source and are kept apart here.

How the values were obtained:
[1] = biological target: T1, Cdc7/Dbf4 complex (Homo sapiens, UniProt O00311); assay: Measurement of Cdc7 kinase inhibitory activity (Transcreener ADP HTRF assay); format: biochemical
T1 construct: Full-length Cdc7 co-expressed with full-length Dbf4; purchased Carna Biosciences (Kobe)
T1 sequence (O00311 whole entry): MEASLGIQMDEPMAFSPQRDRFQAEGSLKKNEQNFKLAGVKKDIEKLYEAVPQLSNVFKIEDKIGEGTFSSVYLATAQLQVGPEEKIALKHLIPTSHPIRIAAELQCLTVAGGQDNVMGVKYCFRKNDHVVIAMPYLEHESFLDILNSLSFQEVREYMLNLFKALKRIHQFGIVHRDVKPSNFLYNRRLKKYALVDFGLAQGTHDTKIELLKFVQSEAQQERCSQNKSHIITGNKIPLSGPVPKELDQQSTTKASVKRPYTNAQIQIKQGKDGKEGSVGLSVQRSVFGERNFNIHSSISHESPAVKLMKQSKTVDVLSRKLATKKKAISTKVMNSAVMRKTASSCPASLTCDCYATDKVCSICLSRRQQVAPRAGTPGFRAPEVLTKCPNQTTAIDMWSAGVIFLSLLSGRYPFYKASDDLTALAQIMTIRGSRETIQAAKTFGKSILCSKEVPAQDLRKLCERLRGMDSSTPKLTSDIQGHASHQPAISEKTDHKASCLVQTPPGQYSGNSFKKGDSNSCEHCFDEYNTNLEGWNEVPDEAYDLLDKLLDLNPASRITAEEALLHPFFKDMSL
T1 sequence (Q9UBU7 whole entry partner): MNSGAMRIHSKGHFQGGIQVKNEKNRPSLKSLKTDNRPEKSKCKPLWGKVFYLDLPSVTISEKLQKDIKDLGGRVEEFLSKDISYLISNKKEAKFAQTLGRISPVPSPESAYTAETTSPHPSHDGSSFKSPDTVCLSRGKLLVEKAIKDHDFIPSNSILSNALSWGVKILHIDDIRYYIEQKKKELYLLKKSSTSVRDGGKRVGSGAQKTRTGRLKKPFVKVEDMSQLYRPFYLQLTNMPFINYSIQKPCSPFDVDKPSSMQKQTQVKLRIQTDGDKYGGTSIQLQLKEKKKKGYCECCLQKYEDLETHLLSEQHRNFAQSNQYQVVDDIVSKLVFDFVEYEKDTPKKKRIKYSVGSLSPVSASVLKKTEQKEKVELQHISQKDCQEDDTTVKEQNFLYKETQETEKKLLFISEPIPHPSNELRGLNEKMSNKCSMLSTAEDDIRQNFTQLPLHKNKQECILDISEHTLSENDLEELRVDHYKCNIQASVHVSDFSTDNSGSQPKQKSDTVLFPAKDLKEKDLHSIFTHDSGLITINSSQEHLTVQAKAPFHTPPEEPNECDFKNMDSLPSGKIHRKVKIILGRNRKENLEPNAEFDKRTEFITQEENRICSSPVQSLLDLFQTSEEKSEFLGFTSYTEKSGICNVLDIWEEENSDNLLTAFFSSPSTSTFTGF
Protocol: Full-length Cdc7 co-expressed with full-length Dbf4 was purchased from Carna Biosciences (Kobe). The enzyme activity of Cdc7/Dbf4 complex was detected by homogeneous time-resolved fluorescence method Transcreener ADP assay (Cisbio Inc., MA, U.S.A.). […] Free ADP produced by ATP hydrolysis was detected by Eu^3+-Cryptate-labeled anti-ADP monoclonal antibody competitively with d2-labeled ADP, and the production amount thereof was measured. The obtained time-resolved fluorescence resonance energy transfer signal was measured by EnVision (Perkin Elmer Inc., MA, U.S.A.). The inhibitory rate (%) of the test compound to Cdc7 was calculated by the following formula. Inhibitory rate(%)=(1−(count of test compound-blank)[…](control-blank))×100
The count of the Cdc7/Dbf4 reaction mixture under compound-free conditions was taken as the control, and that under compound-free and Cdc7/Dbf4-free conditions was taken as the blank.

[2] = test system: human colorectal cancer cell Colo205; assay: Measurement of growth inhibitory activity on human colorectal cancer cell Colo205 (CellTiter-Glo); format: cell-based; conditions: COLO 205, 72 h, read-out: inhibitory rate (%) at 1 μM
Protocol: The growth inhibition of colorectal cancer cell Colo205 with the compound of the present invention can be measured as follows.
A cell suspension (100 μl) of human colorectal cancer cell Colo205 (purchased from ATCC) (3,000 cells/well) was plated in a 96 well plate, and cultured in a 5% carbon dioxide gas incubator at 37° C. for 1 day. Each 2 μM test compound solution was added by 100 μl and the cells were cultured for 3 days. CellTiter-Glo™ Luminescent Cell Viability Assay reagent (50 μl, Promega) was added to the 96 well plate, the luminescence level was measured by a luminometer and the residual ATP amount was taken as the cell amount. The luminescence level of a well free of cell plating was taken as a blank. The cell proliferation inhibitory rate (%) of the test compound was calculated by the following formula. Inhibitory rate(%)=(1−(luminescence level of test compound—blank)[…](luminescence level of control group—blank))×100

[3] = test system: phosphorylated MCM2 (Ser40/Ser41); assay: Measurement of MCM2 phosphorylation inhibitory activity in human colorectal cancer cell Colo205 (Western blot); format: cell-based; conditions: read-out: inhibitory rate (%) at 1 μM
Protocol: The MCM2 phosphorylation suppressive action of the compound of the present invention in human colorectal cancer cell Colo205 can be measured as follows. A cell suspension (500 μl) of human colorectal cancer cell Colo205 (purchased from ATCC) (50,000 cells/well) was plated in a 24 well plate, and cultured in a 5% carbon dioxide gas incubator at 37° C. for 1 day. […] The plate was washed with PBS, the cells were lysed in Laemmli Sample Buffer (BioRad), and cell lysate was treated at 95° C. for 5 min.

[4] = test system: human colorectal cancer cell Colo205; assay: Measurement of antitumor activity in human colorectal cancer cell Colo205 cancer bearing mouse; format: in vivo; conditions: Colo205 tumor growth ratio, mice
Protocol: Tumor volume=long diameter×short diameter×short diameter×(½) Mice having an engrafted tumor volume of about 200 mm^3 were selected, and 5 mice per group were used for the experiment. […] The tumor diameter was measured one day before the start of the administration and the next day of the completion of the administration and the tumor volume was calculated. The tumor growth ratio of the test compound administration group as compared to that of the control administration group was taken as T/C(%) and calculated by the following formula. T/C(%)=(tumor volume of test compound administration group after completion of administration−tumor volume of test compound administration group one day before start of administration)/(tumor volume of control administration group after completion of administration−tumor volume of control administration group one day before start of administration))×100

[5] = test system: phosphorylated MCM2 (Ser40/Ser41); assay: animal or person; conditions: Mus musculus, COLO 205, po, 4 h, read-out: inhibitory rate (%)
Protocol: Human colorectal cancer cell Colo205 was suspended in 50% Matrigel solution, and transplanted into 6- to 7-week-old female BALB/c mice (CLEA Japan, Inc.) at 5.0×10^6 cells by subcutaneous injection. The diameter of the tumor engrafted in 7 to 14 days from the transplantation was measured, and the tumor volume was calculated by the following formula. Tumor volume=long diameter×short diameter×short diameter×(½)
A suspension of the test compound in 0.5% methylcellulose solution (Wako Pure Chemical Industries, Ltd.) was orally administered at a dose shown in the Table to mice having a tumor volume of 150-600 mm^3. The tumor was removed under ether anesthesia at 4 hr after administration of the test compound, and homogenized in Cell Lysis Buffer (Cell Signaling). Using BCA Protein assay kit (Thermo Scientific), the protein in the tumor lysate was quantified, and the protein amount was adjusted. The above-mentioned protein solution was treated with Laemmli Sample Buffer (BioRad) at 95° C. for 5 min.
Then, SDS-PAGE was performed and the protein was transferred onto a PVDF membrane by using iBlot™ gel transfer system (Invitrogen). […] The membrane was washed in the same manner as above, chemical luminescence of antibody-labeled phosphorylated MCM2 protein using SuperSignal West FemtoMaximum Sensitivity Substrate (Pierce Biotechnology) was detected by lumino image analyzer LAS-1000 (Fuji Film).
Using the anti-MCM2 antibody (Santa Cruzu Biotechnology, sc-9839) and HRP-labeled goat IgG polyclonal antibody (Santa Cruzu Biotechnology, sc-2020) and in the same manner as above, the MCM2 protein was detected.
The phosphorylated MCM2 specific activity of each sample was calculated by the following formula. Phosphorylated MCM2 specific activity=(phosphorylated MCM2 luminescence level-background)+(MCM2 luminescence level-background)
The phosphorylated MCM2 protein inhibitory rate (%) of the test compound was calculated by the following formula and shown in Table. […]

[6] = test compound 1 μM, Cdc7/Dbf4, 1.0 μm ATP, 10 μg/ml MCM2, read-out: inhibitory rate (%) at 1 μM
[7] = cell proliferation, Colo205, 1 μM, cultured for 3 days
[8] = COLO 205, phosphorylated MCM2 protein, Colo205 cells, 1 μM, 8 hr
[9] = read-out: inhibitory rate (%) at 1 μM, test compound 1 μM, Cdc7/Dbf4, 1.0 μm ATP, 10 μg/ml MCM2
[10] = 100 mg/kg orally twice a day for 14 days
[11] = test compound 1 μM, Cdc7/Dbf4, 1.0 μm ATP, 10 μg/ml MCM2, dihydrochloride

Compound	inhibition at 1 µM [1, 6]	inhibition at 1 µM [1, 9]	inhibition at 1 µM [2]	inhibition at 1 µM ([3]; COLO 205, 8 h)	other results
Cc1[nH]ncc1-c1cc2nc([C@H]3N[C@@H]4CC[C@H]3C4)[nH]c(=O)c2s1 [Example 91, 2-[(1R,3S,4S)-2-azabicyclo[2.2.1]heptan-3-yl]-6-(5-methyl-1H-pyrazol-4-yl)thieno[3,2-d]pyrimidin-4 (3H)-one]	106%				inhibition at 1 µM [2, 7]: 71.7%; inhibition at 1 µM [3, 8]: 98.4%
O=c1[nH]c([C@@H]2CCCCN2)nc2cc(-c3cn[nH]c3C(F)(F)F)sc12 [Example 161, 2-[(2S)-piperidin-2-yl]-6-[5-(trifluoromethyl)-1H-pyrazol-4-yl]thieno[3,2-d]pyrimidin-4 (3H)-one hydrochloride]		102%	78.6%	96.2%	T/C (%) [4, 10]: −3.6%; inhibition at 100 mg/kg [5]: 80.9%
Cc1[nH]ncc1-c1cc2nc([C@@H]3CCCN3)[nH]c(=O)c2s1 [Example 37, 6-(5-methyl-1H-pyrazol-4-yl)-2-[(2S)-pyrrolidin-2-yl]thieno[3,2-d]pyrimidin-4 (3H)-one dihydrochloride]			75.3%	98.4%	inhibitory rate (%) at 1 μM [1, 11]: 102.6%
Cc1[nH]ncc1-c1cc2nc(C34CCC(CC3)N4)[nH]c(=O)c2s1 [Example 116, 2-(7-azabicyclo[2.2.1]hept-1-yl)-6-(5-methyl-1H-pyrazol-4-yl)thieno[3,2-d]pyrimidin-4 (3H)-one monohydrochloride]		102%	60.5%	98.7%	
Cc1[nH]ncc1-c1cc2nc(CN3CCCC3)[nH]c(=O)c2s1 [Example 2, 6-(5-methyl-1H-pyrazol-4-yl)-2-(pyrrolidin-1-ylmethyl)thieno[3,2-d]pyrimidin-4 (3H)-one]		93.8%	44.1%	90.4%	
Cc1[nH]ncc1-c1cc2nc([C@@H]3CC4CCN3CC4)[nH]c(=O)c2s1 [Example 170, 2-[(2S)-1-azabicyclo[2.2.2]oct-2-yl]-6-(5-methyl-1H-pyrazol-4-yl)thieno[3,2-d]pyrimidin-4 (3H)-one trifluoroacetate]	95%		69.7%	97.3%	
Cc1[nH]ncc1-c1cc2nc([C@H]3NC4CC3[C@H](F)C4)[nH]c(=O)c2s1 (single isomer, unassigned) [Example 160, 2-[(1R,3S,4R,5R) or (1S,3S,4S,5R)-5-fluoro-2-azabicyclo[2.2.1]hept-3-yl]-6-(5-methyl-1H-pyrazol-4-yl)thieno[3,2-d]pyrimidin-4 (3H)-one dihydrochloride]	104%				inhibition at 1 µM [2, 7]: 73.3%; inhibition at 1 µM [3, 8]: 95%
Cc1[nH]ncc1-c1cc2nc([C@@H]3CC=CCN3)[nH]c(=O)c2s1 [Example 145, 6-(5-methyl-1H-pyrazol-4-yl)-2-[(2S)-1,2,3,6-tetrahydropyridin-2-yl]thieno[3,2-d]pyrimidin-4 (3H)-one dihydrochloride]		126%	78.5%	95.8%	T/C (%) [4, 10]: −4.7%; inhibition at 100 mg/kg [5]: 68.9%
Cc1[nH]ncc1-c1cc2nc([C@H]3NC4CC3[C@H](F)C4)[nH]c(=O)c2s1 (single isomer, unassigned) [Example 175, 2-[(1R,3S,4R,5R) or (1S,3S,4S,5R)-5-fluoro-2-azabicyclo[2.2.1]hept-3-yl]-6-(5-methyl-1H-pyrazol-4-yl)thieno[3,2-d]pyrimidin-4 (3H)-one hydrochloride]					inhibitory rate (%) at 1 μM ([1]; test compound 1 μM, Cdc7/Dbf4, 1.0 μm ATP, 10 μg/ml MCM2, hydrochloride): 105%; T/C (%) ([4]; 50 mg/kg orally twice a day for 14 days): 40.3%
Cc1[nH]ncc1-c1cc2nc([C@H]3CCCCN3)[nH]c(=O)c2s1 [Example 85, 6-(5-methyl-1H-pyrazol-4-yl)-2-[(2R)-piperidin-2-yl]thieno[3,2-d]pyrimidin-4 (3H)-one dihydrochloride]		103%			
Cc1[nH]ncc1-c1cc2nc([C@@H]3CCN3)[nH]c(=O)c2s1 [Example 77, 2-[(2S)-azetidin-2-yl]-6-(5-methyl-1H-pyrazol-4-yl)thieno[3,2-d]pyrimidin-4 (3H)-one]					inhibition at 1 µM ([1]; read-out: inhibitory rate (%) at 1 μM): 108%
O=c1[nH]c(C23CC(CN2)C3)nc2cc(-c3cn[nH]c3C(F)(F)F)sc12 [Example 165, 2-(2-azabicyclo[2.1.1]hex-1-yl)-6-[5-(trifluoromethyl)-1H-pyrazol-4-yl]thieno[3,2-d]pyrimidin-4 (3H)-one dihydrochloride]	105%				
Cc1[nH]ncc1-c1cc2nc([C@@H]3CCCCN3)[nH]c(=O)c2s1 [Example 83, 6-(5-methyl-1H-pyrazol-4-yl)-2-[(2S)-piperidin-2-yl]thieno[3,2-d]pyrimidin-4 (3H)-one dihydrochloride]			76.6%	97.6%	inhibitory rate (%) at 1 μM [1, 11]: 125.5%; T/C (%) [4, 10]: 5.7%; inhibition at 100 mg/kg [5]: 71.8%
Cc1[nH]ncc1-c1cc2nc(C3COCCN3)[nH]c(=O)c2s1 (centres unmarked) [Example 72, 6-(5-methyl-1H-pyrazol-4-yl)-2-(morpholin-3-yl)thieno[3,2-d]pyrimidin-4 (3H)-one dihydrochloride]	102%				
Cc1[nH]ncc1-c1cc2nc([C@@H]3C[C@@H](F)CN3)[nH]c(=O)c2s1 [Example 23, 2-[(2S,4R)-4-fluoropyrrolidin-2-yl]-6-(5-methyl-1H-pyrazol-4-yl)thieno[3,2-d]pyrimidin-4 (3H)-one dihydrochloride]	98.4%				
Cc1[nH]ncc1-c1cc2nc([C@]34C[C@H]3CCN4)[nH]c(=O)c2s1 [Example 157, 2-[(1S,5R)-2-azabicyclo[3.1.0]hex-1-yl]-6-(5-methyl-1H-pyrazol-4-yl)thieno[3,2-d]pyrimidin-4 (3H)-one dihydrochloride]	92%				
Cc1[nH]ncc1-c1cc2nc(C(C)(C)N)[nH]c(=O)c2s1 [Example 135, 2-(1-amino-1-methylethyl)-6-(5-methyl-1H-pyrazol-4-yl)thieno[3,2-d]pyrimidin-4 (3H)-one dihydrochloride]	111%				
Cc1[nH]ncc1-c1cc2nc(-c3ccccc3Cl)[nH]c(=O)c2s1 [Example 1, 2-(2-chlorophenyl)-6-(5-methyl-1H-pyrazol-4-yl)thieno[3,2-d]pyrimidin-4 (3H)-one]	97%				
Cc1[nH]ncc1-c1cc2nc(C3CCCCN3)[nH]c(=O)c2s1 (centres unmarked) [Example 71, 6-(5-methyl-1H-pyrazol-4-yl)-2-(piperidin-2-yl)thieno[3,2-d]pyrimidin-4 (3H)-one dihydrochloride]		109%			
